In US20080114007A1 (priority 2006, published 2008) one finds IC50 data, which are given here for 27 molecules.

Molecules are shown by their SMILES.

Chain of CSF-1R (P07333 20-972): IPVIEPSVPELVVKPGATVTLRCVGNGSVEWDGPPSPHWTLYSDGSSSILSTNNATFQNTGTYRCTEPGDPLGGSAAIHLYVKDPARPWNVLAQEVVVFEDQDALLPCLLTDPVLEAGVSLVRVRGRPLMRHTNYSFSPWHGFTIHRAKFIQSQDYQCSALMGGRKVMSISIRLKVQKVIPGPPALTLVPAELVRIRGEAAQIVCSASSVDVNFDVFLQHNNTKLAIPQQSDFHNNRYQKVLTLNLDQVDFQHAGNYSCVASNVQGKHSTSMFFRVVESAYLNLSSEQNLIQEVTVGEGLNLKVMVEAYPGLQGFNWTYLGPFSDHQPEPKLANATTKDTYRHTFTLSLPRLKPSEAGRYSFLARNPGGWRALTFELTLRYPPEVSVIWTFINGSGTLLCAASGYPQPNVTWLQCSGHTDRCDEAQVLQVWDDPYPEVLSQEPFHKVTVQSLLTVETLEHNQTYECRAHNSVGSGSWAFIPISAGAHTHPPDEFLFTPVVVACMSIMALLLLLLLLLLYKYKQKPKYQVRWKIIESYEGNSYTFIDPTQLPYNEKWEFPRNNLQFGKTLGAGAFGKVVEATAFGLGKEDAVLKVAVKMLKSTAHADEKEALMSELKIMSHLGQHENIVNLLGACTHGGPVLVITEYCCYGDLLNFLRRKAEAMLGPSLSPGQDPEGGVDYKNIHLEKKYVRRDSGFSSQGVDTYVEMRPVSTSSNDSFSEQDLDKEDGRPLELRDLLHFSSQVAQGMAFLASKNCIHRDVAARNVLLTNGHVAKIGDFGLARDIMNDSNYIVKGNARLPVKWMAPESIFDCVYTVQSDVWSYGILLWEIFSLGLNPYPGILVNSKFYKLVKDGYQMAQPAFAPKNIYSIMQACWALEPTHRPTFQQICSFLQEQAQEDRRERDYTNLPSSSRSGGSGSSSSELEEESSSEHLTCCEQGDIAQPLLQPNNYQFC

One assay addresses CSF-1R (Homo sapiens, UniProt P07333). Briefly: Peptide (non-phosphorylated) assay, fluorescence polarization competition immunoassay. Format: biochemical. As to conditions: 0.7 nM CSF-1R, 308 μM SYEGNSYTFIDPTQ peptide, 1 mM ATP, 80 min; mean of at least three determinations; read-out: c-fms Peptide IC50. Put shortly:
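Human CSF-1R kinase reaction started with ATP and run 80 min at room temperature, then stopped with EDTA. Phosphopeptide detected by fluorescence polarization competition using anti-phosphotyrosine antibody and PTK green tracer after 30 min. Controls used 4% DMSO, with EDTA added before reaction start for positive controls.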
Consider `CCc1ccc(-n2cc(C(=O)NOC)c(=O)c3cnc(Nc4ccc(CCN5CCN(C)C(=O)C5)cc4)nc32)cc1` [Cpd 221, 8-(4-ethyl-phenyl)-2-{4-[2-(4-methyl-3-oxo-piperazin-1-yl)-ethyl]-phenylamino}-5-oxo-5,8-dihydro-pyrido[2,3-d]pyrimidine-6-carboxylic acid methoxy-amide], for which the IC50 is 0.87 nM.
On the same count and under the same terms, the same measure for `CCc1ccc(-n2cc(C(=O)NOC)c(=O)c3cnc(Nc4ccc(-c5ccc(N(C)C)cc5)cc4)nc32)cc1` [Cpd 306, 2-(4′-dimethylamino-biphenyl-4-ylamino)-8-(4-ethyl-phenyl)-5-oxo-5,8-dihydro-pyrido[2,3-d]pyrimidine-6-carboxylic acid methoxy-amide]: 14 nM.
Regarding `CONC(=O)c1cn(-c2ccc3c(c2)CCC3)c2nc(Nc3ccc(CC(=O)NN4CCCCC4)cc3)ncc2c1=O` [Cpd 102, 8-indan-5-yl-5-oxo-2-[4-(piperidin-1-ylcarbamoylmethyl)-phenylamino]-5,8-dihydro-pyrido[2,3-d]pyrimidine-6-carboxylic acid methoxy-amide], the IC50 amounted to 2.3 nM.
Still for that read-out and setting: with `CCc1ccc(-n2cc(C(=O)NOC)c(=O)c3cnc(Nc4cccc(N5CCN(C)CC5)c4)nc32)cc1` [Cpd 321, 8-(4-ethyl-phenyl)-2-[3-(4-methyl-piperazin-1-yl)-phenylamino]-5-oxo-5,8-dihydro-pyrido[2,3-d]pyrimidine-6-carboxylic acid methoxy-amide] the figure was 0.5 nM; with `CCc1ccc(-n2cc(C(=O)NOC)c(=O)c3cnc(Nc4ccc(CCN5CCCC5)cc4)nc32)cc1` [Cpd 55, 8-(4-ethyl-phenyl)-5-oxo-2-[4-(2-pyrrolidin-1-yl-ethyl)-phenylamino]-5,8-dihydro-pyrido[2,3-d]pyrimidine-6-carboxylic acid methoxy-amide], 0.51 nM; with `COCCOc1ccc(Nc2ncc3c(=O)c(C(=O)NOC)cn(-c4ccc5c(c4)CCC5)c3n2)cc1OCCOC` [Cpd 314, 2-[3,4-bis-(2-methoxy-ethoxy)-phenylamino]-8-indan-5-yl-5-oxo-5,8-dihydro-pyrido[2,3-d]pyrimidine-6-carboxylic acid methoxy-amide], 0.5 nM.
Regarding `CONC(=O)c1cn(-c2ccc3c(c2)CCC3)c2nc(Nc3cccc(C4(O)CCN(CC(F)(F)F)CC4)c3)ncc2c1=O` [Cpd 277, 2-{3-[4-hydroxy-1-(2,2,2-trifluoro-ethyl)-piperidin-4-yl]-phenylamino}-8-indan-5-yl-5-oxo-5,8-dihydro-pyrido[2,3-d]pyrimidine-6-carboxylic acid methoxy-amide], the IC50 came out at 2.7 nM.
Turning to `CCc1ccc(-n2cc(C(=O)NOC)c(=O)c3cnc(Nc4ccc(C5CCCCN5)cc4)nc32)cc1` (stereo not drawn) [Cpd 242, 8-(4-ethyl-phenyl)-5-oxo-2-(4-piperidin-2-yl-phenylamino)-5,8-dihydro-pyrido[2,3-d]pyrimidine-6-carboxylic acid methoxy-amide], the IC50 came out at 0.59 nM.
With `CCc1ccc(-n2cc(C(=O)NOC)c(=O)c3cnc(Nc4ccc(C5CCN(CCOC)CC5)cc4)nc32)cc1` [Cpd 207, 8-(4-ethyl-phenyl)-2-{4-[1-(2-methoxy-ethyl)-piperidin-4-yl]-phenylamino}-5-oxo-5,8-dihydro-pyrido[2,3-d]pyrimidine-6-carboxylic acid methoxy-amide], the IC50 was 0.3 nM.
In the case of `CCc1ccc(-n2cc(C(=O)NOC)c(=O)c3cnc(Nc4ccc(CCN5CCC5)cc4)nc32)cc1` [Cpd 260, 2-[4-(2-azetidin-1-yl-ethyl)-phenylamino]-8-(4-ethyl-phenyl)-5-oxo-5,8-dihydro-pyrido[2,3-d]pyrimidine-6-carboxylic acid methoxy-amide], the IC50 was 0.61 nM.
`CCc1ccc(-n2cc(C(=O)NOC)c(=O)c3cnc(Nc4ccc(CCN5CCC[C@@H](O)C5)cc4)nc32)cc1` [Cpd 240, 8-(4-ethyl-phenyl)-2-(4-{2-[(3R)-(3-hydroxy-piperidin-1-yl)]-ethyl}-phenylamino)-5-oxo-5,8-dihydro-pyrido[2,3-d]pyrimidine-6-carboxylic acid methoxy-amide]: the IC50 turned out to be 0.28 nM.
`CCc1ccc(-n2cc(C(=O)NOC)c(=O)c3cnc(Nc4ccc5cn[nH]c5c4)nc32)cc1` [Cpd 288, 8-(4-ethyl-phenyl)-2-(1H-indazol-6-ylamino)-5-oxo-5,8-dihydro-pyrido[2,3-d]pyrimidine-6-carboxylic acid methoxy-amide]: the IC50 is 1.5 nM.
For `CC(C)NC(=O)c1cn(-c2ccc3c(c2)CCC3)c2nc(Nc3cccc(N4CCNCC4)c3)ncc2c1=O` [Cpd 1, 8-indan-5-yl-5-oxo-2-(3-piperazin-1-yl-phenylamino)-5,8-dihydro-pyrido[2,3-d]pyrimidine-6-carboxylic acid isopropylamide], the IC50 is 4.5 nM.
`CONC(=O)c1cn(-c2ccc3c(c2)CCC3)c2nc(Nc3ccc(C[C@H]4COC(=O)N4)cc3)ncc2c1=O` [Cpd 67, (S)-8-indan-5-yl-5-oxo-2-[4-(2-oxo-oxazolidin-4-ylmethyl)-phenylamino]-5,8-dihydro-pyrido[2,3-d]pyrimidine-6-carboxylic acid methoxy-amide]: the IC50 turned out to be 1 nM.
On to `CONC(=O)c1cn(-c2ccc3c(c2)CCC3)c2nc(Nc3ccc(CCN4CC[C@@H](F)C4)cc3)ncc2c1=O` [Cpd 252, 2-(4-{2-[(3R)-(3-fluoro-pyrrolidin-1-yl)]-ethyl}-phenylamino)-8-indan-5-yl-5-oxo-5,8-dihydro-pyrido[2,3-d]pyrimidine-6-carboxylic acid methoxy-amide], for which the IC50 amounted to 0.57 nM.
Consider `CONC(=O)c1cn(-c2ccc3c(c2)CCC3)c2nc(Nc3ccc(C(=O)NS(C)(=O)=O)cc3)ncc2c1=O` [Cpd 214, 8-indan-5-yl-2-(4-methanesulfonylaminocarbonyl-phenylamino)-5-oxo-5,8-dihydro-pyrido[2,3-d]pyrimidine-6-carboxylic acid methoxy-amide], for which the IC50 is 1.6 nM.
As to `CC(C)ONC(=O)c1cn(-c2ccc3c(c2)CCC3)c2nc(Nc3ccc(CCN4CCCC4)cc3)ncc2c1=O` [Cpd 133, 8-indan-5-yl-5-oxo-2-[4-(2-pyrrolidin-1-yl-ethyl)-phenylamino]-5,8-dihydro-pyrido[2,3-d]pyrimidine-6-carboxylic acid isopropoxy-amide], the IC50 came to 1.2 nM.
`CN(C)C(=O)Cc1ccc(Nc2ncc3c(=O)c(C(N)=O)cn(-c4ccc5c(c4)CCC5)c3n2)cc1` [Cpd 118, 2-(4-dimethylcarbamoylmethyl-phenylamino)-8-indan-5-yl-5-oxo-5,8-dihydro-pyrido[2,3-d]pyrimidine-6-carboxylic acid amide]: the IC50 was 4.5 nM.
On the same count and under the same terms, with `CONC(=O)c1cn(-c2cnc3c(c2)CCC3)c2nc(Nc3ccc(CCS(C)(=O)=O)cc3)ncc2c1=O` [Cpd 226, 8-(6,7-dihydro-5H-[1]pyrindin-3-yl)-2-[4-(2-methanesulfonyl-ethyl)-phenylamino]-5-oxo-5,8-dihydro-pyrido[2,3-d]pyrimidine-6-carboxylic acid methoxy-amide] the figure was 7.7 nM; with `COCCOc1cccc(Nc2ncc3c(=O)c(C(=O)NOC)cn(-c4ccc5c(c4)CCC5)c3n2)c1` [Cpd 261, 8-indan-5-yl-2-[3-(2-methoxy-ethoxy)-phenylamino]-5-oxo-5,8-dihydro-pyrido[2,3-d]pyrimidine-6-carboxylic acid methoxy-amide], 0.95 nM.
In the case of `CCN1CCCC(Oc2cccc(Nc3ncc4c(=O)c(C(=O)NOC)cn(-c5ccc6c(c5)CCC6)c4n3)c2)C1` (stereo not drawn) [Cpd 251, 2-[3-(1-ethyl-piperidin-3-yloxy)-phenylamino]-8-indan-5-yl-5-oxo-5,8-dihydro-pyrido[2,3-d]pyrimidine-6-carboxylic acid methoxy-amide], the IC50 turned out to be 0.93 nM.
`CCc1ccc(-n2cc(C(=O)NOC)c(=O)c3cnc(Nc4ccc(C5CCN(CCc6ccccc6)CC5)cc4)nc32)cc1` [Cpd 295, 8-(4-ethyl-phenyl)-5-oxo-2-[4-(1-phenethyl-piperidin-4-yl)-phenylamino]-5,8-dihydro-pyrido[2,3-d]pyrimidine-6-carboxylic acid methoxy-amide]: the IC50 is 1.2 nM.
With `CONC(=O)c1cn(-c2ccc3c(c2)CCC3)c2nc(Nc3ccc4cc[nH]c4c3)ncc2c1=O` [Cpd 289, 8-indan-5-yl-2-(1H-indol-6-ylamino)-5-oxo-5,8-dihydro-pyrido[2,3-d]pyrimidine-6-carboxylic acid methoxy-amide], the IC50 turned out to be 2 nM.
For `CCc1ccc(-n2cc(C(=O)NOC)c(=O)c3cnc(Nc4ccc(CCN5CCN(C)CC5)cc4)nc32)cc1` [Cpd 56, 8-(4-ethyl-phenyl)-2-{4-[2-(4-methyl-piperazin-1-yl)-ethyl]-phenylamino}-5-oxo-5,8-dihydro-pyrido[2,3-d]pyrimidine-6-carboxylic acid methoxy-amide], the IC50 is 1.1 nM.
As to `CCc1ccc(-n2cc(C(=O)NOC)c(=O)c3cnc(Nc4cccc(NC(=O)CN(C)C)c4)nc32)cc1` [Cpd 228, 2-[3-(2-dimethylamino-acetylamino)-phenylamino]-8-(4-ethyl-phenyl)-5-oxo-5,8-dihydro-pyrido[2,3-d]pyrimidine-6-carboxylic acid methoxy-amide], the IC50 is 0.68 nM.
On to `CC(C)ONC(=O)c1cn(C2CCCC2)c2nc(Nc3ccc(CCN4CCCC4)cc3)ncc2c1=O` [Cpd 41, 8-cyclopentyl-5-oxo-2-[4-(2-pyrrolidin-1-yl-ethyl)-phenylamino]-5,8-dihydro-pyrido[2,3-d]pyrimidine-6-carboxylic acid isopropoxy-amide], for which the IC50 was 4.1 nM.

Still in this assay, the particulars now being: c-fms Peptide IC50, 0.7 nM CSF-1R, 308 μM SYEGNSYTFIDPTQ peptide, 1 mM ATP, 80 min; mean of at least three determinations.
As to `CCc1ccc(-n2cc(C(=O)NOC)c(=O)c3cnc(Nc4ccc(C5CCN(C)CC5)cc4)nc32)cc1` [Cpd 156, 8-(4-ethyl-phenyl)-2-[4-(1-methyl-piperidin-4-yl)-phenylamino]-5-oxo-5,8-dihydro-pyrido[2,3-d]pyrimidine-6-carboxylic acid methoxy-amide], the IC50 was 0.3 nM.

As usually defined, the IC50 is the midpoint of a concentration-inhibition curve.
